From patent US9447100B2, “Substituted pyrazolo[1,5-A] pyrimidines as calcium receptor modulating agents” (Takeda Pharmaceutical Company Limited, priority 2002, dated 2016)
Structures can show the parent of a compound that is named as a salt.

melting point | Compound
149 to 150 °C | CCC(CC)(NC(=O)c1c(C)nn2c1NC(c1cccs1)CC2(C)C)c1ccc(C)cc1 (centres unmarked) (as salt: HCl) [Example 956, N-(1-ethyl-1-(4-methylphenyl)propyl)-2,7,7-trimethyl-5-(2-thienyl)-4,5,6,7-tetrahydropyrazolo[1,5-a]pyrimidine-3-carboxamide]
181 to 182 °C | CCCC(CC)(CC)NC(=O)c1c(C)nn2c1NC(c1ccccc1F)CC2(C)C (centres unmarked) (as salt: HCl) [Example 957, N-(1,1-diethylbutyl)-5-(2-fluorophenyl)-2,7,7-trimethyl-4,5,6,7-tetrahydropyrazolo[1,5-a]pyrimidine-3-carboxamide]
171 to 172 °C | CCC(CC)(NC(=O)c1c(C)nn2c1NC(c1cccs1)CC2(C)C)c1ccccc1 (centres unmarked) (as salt: HCl) [Example 958, N-(1-ethyl-1-phenylpropyl)-2,7,7-trimethyl-5-(2-thienyl)-4,5,6,7-tetrahydropyrazolo[1,5-a]pyrimidine-3-carboxamide]
188 to 189 °C | CCC(CC)(NC(=O)c1cnn2c1NC(c1ccc(OC)cc1)CC2(C)C)c1ccc(C)cc1 (centres unmarked) (as salt: HCl) [Example 960, N-[1-ethyl-1-(4-methylphenyl)propyl]-5-(4-methoxyphenyl)-7,7-dimethyl-4,5,6,7-tetrahydropyrazolo[1,5-a]pyrimidine-3-carboxamide]
128 to 130 °C | CCC(CC)(NC(=O)c1cnn2c1NC(c1ccccc1Cl)CC2(C)C)c1ccc(C)cc1 (centres unmarked) (as salt: HCl) [Example 961, 5-(2-chlorophenyl)-N-[1-ethyl-1-(4-methylphenyl)propyl]-7,7-dimethyl-4,5,6,7-tetrahydropyrazolo[1,5-a]pyrimidine-3-carboxamide]
158 to 159 °C | CCC(CC)(NC(=O)c1cnn2c1NC(c1ccccc1OC)CC2(C)C)c1ccc(C)cc1 (centres unmarked) (as salt: HCl) [Example 964, N-[1-ethyl-1-(4-methylphenyl)propyl]-5-(2-methoxyphenyl)-7,7-dimethyl-4,5,6,7-tetrahydropyrazolo[1,5-a]pyrimidine-3-carboxamide]
162 to 163 °C | CCC(CC)(NC(=O)c1c(C)nn2c1NC(c1ccccc1OC)CC2(C)C)c1ccc(C)cc1 (centres unmarked) (as salt: HCl) [Example 965, N-(1-ethyl-1-(4-methylphenyl)propyl)-5-(2-methoxyphenyl)-2,7,7-trimethyl-4,5,6,7-tetrahydropyrazolo[1,5-a]pyrimidine-3-carboxamide]
146 °C | CCC(CC)(NC(=O)c1c(C)nn2c1NC(c1cccc(OC)c1)CC2(C)C)c1ccc(C)cc1 (centres unmarked) (as salt: HCl) [Example 966, N-(1-ethyl-1-(4-methylphenyl)propyl)-5-(3-methoxyphenyl)-2,7,7-trimethyl-4,5,6,7-tetrahydropyrazolo[1,5-a]pyrimidine-3-carboxamide]
153 to 154 °C | CCC(CC)(NC(=O)c1c(C)nn2c1NC(c1ccc(OC)cc1)CC2(C)C)c1ccc(C)cc1 (centres unmarked) (as salt: HCl) [Example 967, N-(1-ethyl-1-(4-methylphenyl)propyl)-5-(4-methoxyphenyl)-2,7,7-trimethyl-4,5,6,7-tetrahydropyrazolo[1,5-a]pyrimidine-3-carboxamide]
173 to 174 °C | CCC(CC)(NC(=O)c1c(C)nn2c1NC(c1ccccc1Cl)CC2(C)C)c1ccc(C)cc1 (centres unmarked) (as salt: HCl) [Example 968, 5-(2-chlorophenyl)-N-(1-ethyl-1-(4-methylphenyl)propyl)-2,7,7-trimethyl-4,5,6,7-tetrahydropyrazolo[1,5-a]pyrimidine-3-carboxamide]
152 to 153 °C | CCC(CC)(NC(=O)c1c(C)nn2c1NC(c1ccccc1F)CC2(C)C)c1ccc(N(C)C)cc1 (centres unmarked) (as salt: HCl) [Example 969, N-(1-(4-(dimethylamino)phenyl)-1-ethylpropyl)-5-(2-fluorophenyl)-2,7,7-trimethyl-4,5,6,7-tetrahydropyrazolo[1,5-a]pyrimidine-3-carboxamide]
150 to 151 °C | CCC(CC)(NC(=O)c1cnn2c1NC(c1ccc(C)cc1C)CC2(C)C)c1ccc(C)cc1 (centres unmarked) (as salt: HCl) [Example 970, 5-(2,4-dimethylphenyl)-N-(1-ethyl-1-(4-methylphenyl)propyl)-7,7-dimethyl-4,5,6,7-tetrahydropyrazolo[1,5-a]pyrimidine-3-carboxamide]
166 to 169 °C | CCC(CC)(NC(=O)c1c(C)nn2c1NC(c1ccc(F)cc1)CC2(C)C)c1ccc(C)cc1 (centres unmarked) (as salt: HCl) [Example 971, N-(1-ethyl-1-(4-methylphenyl)propyl)-5-(4-fluorophenyl)-2,7,7-trimethyl-4,5,6,7-tetrahydropyrazolo[1,5-a]pyrimidine-3-carboxamide]
152 to 155 °C | CCC(CC)(NC(=O)c1c(C)nn2c1NC(c1cccc(F)c1)CC2(C)C)c1ccc(C)cc1 (centres unmarked) (as salt: HCl) [Example 972, N-(1-ethyl-1-(4-methylphenyl)propyl)-5-(3-fluorophenyl)-2,7,7-trimethyl-4,5,6,7-tetrahydropyrazolo[1,5-a]pyrimidine-3-carboxamide]
152 to 154 °C | CCC(CC)(NC(=O)c1c(C)nn2c1NC(c1ccc(C)cc1)CC2(C)C)c1ccc(C)cc1 (centres unmarked) (as salt: HCl) [Example 973, N-(1-ethyl-1-(4-methylphenyl)propyl)-2,7,7-trimethyl-5-(4-methylphenyl)-4,5,6,7-tetrahydropyrazolo[1,5-a]pyrimidine-3-carboxamide]
120 to 123 °C | CCC(CC)(NC(=O)c1c(C)nn2c1NC(c1cccc(C)c1)CC2(C)C)c1ccc(C)cc1 (centres unmarked) (as salt: HCl) [Example 974, N-(1-ethyl-1-(4-methylphenyl)propyl)-2,7,7-trimethyl-5-(3-methylphenyl)-4,5,6,7-tetrahydropyrazolo[1,5-a]pyrimidine-3-carboxamide]
193 to 194 °C | CCC(CC)(NC(=O)c1c(C)nn2c1N[C@@H](c1ccccc1)CC2(C)C)c1ccc(Cl)cc1 (as salt: HCl) [Example 1043, (5R)-N-(1-(4-chlorophenyl)-1-ethylpropyl)-2,7,7-trimethyl-5-phenyl-4,5,6,7-tetrahydropyrazolo[1,5-a]pyrimidine-3-carboxamide]
149 to 150 °C | CCc1ccc(C(CC)(CC)NC(=O)c2cnn3c2N[C@@H](c2ccccc2)CC3(C)C)cc1 (as salt: HCl) [Example 1051, (5R)-N-(1-ethyl-1-(4-ethylphenyl)propyl)-7,7-dimethyl-5-phenyl-4,5,6,7-tetrahydropyrazolo[1,5-a]pyrimidine-3-carboxamide]
139 to 140 °C | CCC(CC)(NC(=O)c1cnn2c1N[C@@H](c1ccccc1)CC2(C)C)c1ccc(C(C)(C)C)cc1 (as salt: HCl) [Example 1052, (5R)-N-(1-(4-tert-butylphenyl)-1-ethylpropyl)-7,7-dimethyl-5-phenyl-4,5,6,7-tetrahydropyrazolo[1,5-a]pyrimidine-3-carboxamide]
176 to 177 °C | CCCC(CC)(CC)NC(=O)c1c(C)nn2c1N[C@@H](c1ccccc1)CC2(C)C (as salt: HCl) [Example 1055, (5R)-N-(1,1-diethylbutyl)-2,7,7-trimethyl-5-phenyl-4,5,6,7-tetrahydropyrazolo[1,5-a]pyrimidine-3-carboxamide]
